Data from article PMC13144739, “Global analysis of cancer cell responses to USP9X inhibition” (The EMBO Journal, 2026).
“Also recorded” adds a separate entry of the source.

Key:
USP9X catalytic domain [1] = target: T1, USP9X catalytic domain (Homo sapiens, UniProt Q93008); assay: Ub-Rho cleavage assay; assay type: biochemical; conditions: relative to WEHI-553
T1 construct: His/SUMO (pOPIN-S vector) (N, cleaved yes); made in house; host or cells: E. coli BL21
T1 sequence (Q93008 1551-1970): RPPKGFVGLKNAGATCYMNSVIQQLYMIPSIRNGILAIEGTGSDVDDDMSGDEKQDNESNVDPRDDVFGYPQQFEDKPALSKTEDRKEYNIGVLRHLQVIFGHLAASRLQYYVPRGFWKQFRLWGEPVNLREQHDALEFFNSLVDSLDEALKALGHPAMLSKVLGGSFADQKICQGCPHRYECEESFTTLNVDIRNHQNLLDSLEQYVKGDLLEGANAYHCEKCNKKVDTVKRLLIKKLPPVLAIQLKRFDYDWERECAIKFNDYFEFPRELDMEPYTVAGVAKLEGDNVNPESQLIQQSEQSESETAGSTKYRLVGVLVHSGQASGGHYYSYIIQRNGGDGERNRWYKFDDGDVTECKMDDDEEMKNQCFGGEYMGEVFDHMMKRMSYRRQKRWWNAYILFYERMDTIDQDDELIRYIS
Method: The reaction was stopped through the addition of 10 mM citric acid. The assay was performed in 384-well format with a total reaction volume of 16 µL. Data was collected using the ClarioSTAR plate reader (BMG Labtech) at an emission of 535 nm. […] IC50 values presented in our study are the mean of three independent biological repeats unless indicated otherwise.

USP9X catalytic domain [2] = target: T1, USP9X catalytic domain; assay: K48-linked di-ubiquitin cleavage assay; assay type: biochemical; conditions: 50 µM compound
Method: (§1) For inhibitor activity assays, USP9X catalytic domain (di-ubiquitin cleavage assay: 750 nM, ubiquitin-probe assays: 2.5 µM) was pre-incubated with USP9X inhibitors for 30 min at ambient temperature and subsequently mixed with di-ubiquitin (final concentration 2 µM) in assay buffer (25 mM Tris [pH 8.0], 150 mM NaCl, 10 mM DTT) at pH 8.0 or was mixed with ubiquitin-propargylamide (Ub-PA)/ubiquitin-vinyl sulfonate (Ub-VS) probes at a final concentration of 10 µM in assay buffer. For both assays, the mixture was incubated over a time course, and the reaction was stopped by mixing samples with 2× LDS sample buffer (Invitrogen) supplemented with 3% (v/v) 2-mercaptoethanol. All protein samples were run on a 4–12% Bis-Tris SDS-PAGE gradient gel (Invitrogen) for 60 min at 140 V. The gel was stained with InstantBlue® (Abcam) and imaged.

USP9X catalytic domain [3] = target: T1, USP9X catalytic domain; assay: Ub-PA suicide probe competition assay; assay type: biochemical; conditions: 50 µM compound, WT catalytic domain
Method: as §1

USP24 [4] = assay: DUBprofiler DUB selectivity panel, USP24; assay type: biochemical, human; conditions: 50 µM compound
Method: UAF1 was added to the USP1, USP12 and USP46 reactions (with WDR20 additionally added to the USP12 and USP46 reactions), respectively. Ubiquitin was added to the USP5 reaction at KD. Proteasome-VS was added to the USP14 reaction at KD. OTUD5 p177S was used. The reaction for AMSH-LP was supplemented with Zinc.

USP24 [5] = tested on: T2, USP24; assay: DUB IP-MS in MCF-7 cell lysates, USP24; assay type: biochemical, human; conditions: 50 µM
T2 construct: endogenous in cells; host or cells: MCF-7 cell lysate
Method: MCF-7 cells have been profiled for active DUBs previously (Pinto-Fernández et al, [2019]). Lysates were generated as described by others (Turnbull et al, [2017]) using 30 s freeze-thaw cycles (thrice) in lysis buffer (50 mM Tris [pH 7.4], 5 mM MgCl2 × 6 H2O, 0.5 mM EDTA [pH 8.0], 250 mM sucrose and 1 mM DTT) at pH 7.5. […] A pre-treatment of cell lysates with 0.5 µg Ub-VS was included for a baseline DUB response to the Ub-VS probe. 0.1 µg 3X-FLAG-Ub-VS probe was added to samples and incubated for 5 min at 37 °C. […] Samples were washed thrice with lysis buffer and eluted from the resin with lysis buffer supplemented with 1% (w/v) SDS following a 10 min incubation. Two consecutive elutions were pooled, and samples were stored at −80 °C until processing.
DNA was hydrolysed with the addition of 2 µL neat TFA, and lysates were neutralised to pH 8.5 by the addition of 1 M Tris-HCl as previously described (Dagley et al, [2019]). Protein concentration was determined using Pierce™ BCA Protein Assay Kit (Thermo Fisher Scientific) following the manufacturer’s instructions. For DUB IP-MS, samples were processed using S-Trap spin columns (Profiti) by following the manufacturer’s instructions. […]

USP9X catalytic domain [6] = target: T1, USP9X catalytic domain; assay: HDX-MS; assay type: binding; conditions: 6 s deuterium exchange; 80 µM WEHI-092 or 30 µM FT709
Method: Deuterium labelling of USP9X catalytic domain was performed as described previously (Asadollahi et al, [2023]) at 20 °C for periods of 0, 6, 60, 6000 s using a PAL Dual Head HDX Automation manager (Trajan/LEAP) controlled by the ChronosHDX software. […] Quenching was performed by adding 50 µL of the protein mix to 50 µL of quench buffer (50 mM potassium phosphate buffer [pH 2.3], 4 M guanidine hydrochloride and 0.1% [v/v] n-dodecylphosphocholine) at 1 °C. […] To further reduce peptide carryover, n-octyl-β-d-glucopyranoside at 1% (w/w) was added to the pepsin column wash solution (1.5 M guanidine hydrochloride, 4% [v/v] acetonitrile [ACN], 0.8% [v/v] FA). […] For MS, an ion mobility equipped SYNAPT G2-Si mass spectrometer (Waters) was used. Instrument settings were: 3.0 KV capillary and 40 V sampling cone with source and desolvation temperatures of 100 °C and 40 °C, respectively. The desolvation and cone gas flow were at 80 L/h and 100 L/h, respectively. High-energy ramp trap collision energy was from 20 to 40 V. All mass spectra were acquired using a 0.4 s scan time with continuous lock mass (Leu-Enk, 556.2771 m/z) for mass accuracy correction. […] The deuterium uptake values were calculated for each peptide using DynamX 3.0 (Waters). […]

UO-31 cells = assay: IncuCyte live-cell imaging cell death (PI uptake), UO-31; assay type: cell-based, human
Method: Cells were seeded at varying densities (1000–8000 cells per well) after initial optimisation in a 96-well tissue culture-treated plate (Thermo Fisher Scientific). Cells were incubated o/n, and the next day, inhibitors and controls diluted in cell media were added to the cells to a final volume of 200 μL per well. Cell death was measured using PI (Sigma-Aldrich). Cells were imaged with four images per well every 2 h for up to 96 h using the IncuCyte live-cell analysis system (S3, Sartorius). Cell proliferation data were analysed using Microsoft Excel by normalising confluence to control conditions. For cell killing readouts, the number of PI-positive cells was normalised to the control conditions for each timepoint.

DLD-1 cells = assay: Colony formation assay, DLD-1; assay type: cell-based, human; conditions: 10 µM, 7–12 days
Method: (§2) Cells were seeded at low density (200–4000 cells per well) after initial optimisation in a six-well tissue culture-treated plate (Falcon). Twenty-four hours post seeding, media was replaced, and the inhibitor was added. Cells were left to grow into colonies between 7 and 12 days, depending on the cell line. For analysis, the media was removed, and the cells were fixed with 10% (w/v) formalin for 10 min. Colonies were stained with crystal violet (Sigma-Aldrich, 0.5% [w/v] in 20% [v/v] MeOH) for 10 min and washed thrice with distilled H2O. Plates were imaged using the ChemiDoc imaging system (Bio-Rad) and analysed using the ImageJ ColonyArea plugin as described previously (Guzmán et al, [2014]).

PANC-1 cells = assay: Colony formation assay, PANC-1; assay type: cell-based, human; conditions: 10 µM, 7–12 days
Method: as §2

Cc1[nH]c2ccc(C(=O)N3CCN(S(=O)(=O)c4ccc5c(c4)OCCO5)CC3)cc2c1C [WEHI-092]
improvement of IC50 towards USP9X by SAR (USP9X catalytic domain [1]): > 16 fold
cleavage of K48-linked di-ubiquitin (USP9X catalytic domain [2]): inhibited cleavage of K48-linked di-ubiquitin
modification of USP9X with Ub-PA probe (USP9X catalytic domain [3]): prevented the modification of USP9X with ubiquitin propargylamide; also recorded: unable to be modified by the probe
inhibition of USP24, commercial panel (USP24 [4]): not inhibited
inhibition of USP24 in cell lysates (DUB IP-MS) (USP24 [5]): not inhibited
changes in hydrogen-deuterium uptake upon compound binding (USP9X catalytic domain [6]): protection of five overlapping peptides that included residues 1757-1762
cell killing of UO-31 cells (IncuCyte) (UO-31 cells): killed
clonogenic potential, DLD-1 (DLD-1 cells): strong decrease in proliferative capacity
clonogenic potential, PANC-1 (PANC-1 cells): strong decrease in proliferative capacity
